According to PMC5402304, “Oxoaporphine Metal Complexes (Co^II, Ni^II, Zn^II) with High Antitumor Activity by Inducing Mitochondria-Mediated Apoptosis and S-phase Arrest in HepG2” (Scientific Reports, 2017):
Where two headings read alike, the source gives them in different places.

Experiments:
[1] = test system: HepG2; experiment: MTT cytotoxicity assay, HepG2; type: cell-based, human
Experimental: (§1) The in vitro cytotoxicity of OD, 1–3 and the corresponding metal salts were determined by MTT assay towards a panel of human tumor cells including HepG2, T-24, BEL-7404, MGC80-3, SK-OV-3/DDP and normal HL-7702 cells. As the positive control, cisplatin was dissolved at a concentration of 1 mM in 0.154 M NaCl[32].
(§2) The human tumor cell lines (BEL-7404, HepG2, MGC80–3, T-24, SK-OV-3/DDP and HeLa cells) and the human normal liver cell line HL-7702 were obtained from Shanghai Cell Bank in Chinese Academy of Sciences. Cells were cultured in Dulbecco’s modified Eagle’s medium (DMEM) or RPMI-1640 medium, which supplemented with 10% fetal bovine serum (FBS) and 100 U/mL penicillin and streptomycin. Cells were cultured at 37 °C in a humidified atmosphere with 5% CO2/95% air. Tested compounds (2.0 mM) were prepared as DMSO stock solution before they were diluted to working concentrations by PBS buffer (containing 0.5% DMSO), while cisplatin dissolved in 0.9% sodium chloride solution was used as positive controls.
(§3) Cells in their logarithmic phase were seeded in 96-well plates with 5.5 × 10^3/180 μL per well for 24 h. Then 20 μL of compounds at various concentrations were added to each well to achieve final concentrations of 1.25, 2.5, 5.0, 10.0, and 20.0 μM. All the cells were incubated with test compounds for another 48 h before MTT assay. Control wells contained media with 0.5% DMSO. After 48 h of cultivation, 10 μL of MTT (5 mg/mL in PBS) was added to each well, and cells were incubated at 37 °C for 6 h. The contents in the wells were pipetted out carefully, and the formazan crystals formed were dissolved in 100 μL of DMSO, and the absorbance was measured by enzyme labeling instrument with 490 nm/630 nm double wavelength measurement. The IC50 value was defined as a drug concentration killing 50% cells in comparison with untreated controls, which was calculated by the Bliss method (n = 5). All tests were repeated in at least three independent trials.

[2] = test system: T-24; experiment: MTT cytotoxicity assay, T-24; type: cell-based, human
Experimental: as §1, §2, §3

[3] = test system: BEL-7404; experiment: MTT cytotoxicity assay, BEL-7404; type: cell-based, human
Experimental: as §1, §2, §3

[4] = test system: MGC80-3; experiment: MTT cytotoxicity assay, MGC80-3; type: cell-based, human
Experimental: as §1, §2, §3

[5] = test system: SK-OV-3/DDP; experiment: MTT cytotoxicity assay, SK-OV-3/DDP; type: cell-based, human
Experimental: as §1, §2, §3

[6] = test system: HL-7702; experiment: MTT cytotoxicity assay, normal liver cells HL-7702; type: cell-based, human; settings: 48 h
Experimental: as §1, §2, §3

[7] = test system: HepG2, T-24, BEL-7404, MGC80-3, SK-OV-3/DDP; experiment: MTT cytotoxicity assay, panel of human tumor cells; type: cell-based; settings: 48 h, range over all the tested tumor cells, read-out: inhibition rate
Experimental: as §1, §2
Cells in their logarithmic phase were seeded in 96-well plates with 5.5 × 10^3/180 μL per well for 24 h. […] The contents in the wells were pipetted out carefully, and the formazan crystals formed were dissolved in 100 μL of DMSO, and the absorbance was measured by enzyme labeling instrument with 490 nm/630 nm double wavelength measurement. […]

[8] = test system: HepG2 cells; experiment: Cell cycle analysis by flow cytometry; type: cell-based, human; settings: HepG2, 0.5 and 1.0 μM, 24 h, compared to untreated cells
Experimental: With the high cytotoxicity in vitro, HepG2 cells were selected to investigate the cell cycle treated with 1–3 (0.125, 0.25 and 0.5 μM) and OD (0.5 and 1.0 μM) for 24 h. […] However, 1–3 induced a significant increase of S-phase cell population in a dose-dependent manner.
Cell cycle progression and apoptosis were determined by flow cytometric analysis. (a) Cell cycle arrest assay: HepG2 cells in their logarithmic phase were plated into 50 mL plates at a final density of 5−6 × 10^6 cells/well overnight, then they were treated with various doses (0.25, 0.5 and 1.0 μM) of 1–3 for another 24 h. Cells were trypsinized, collected, and fixed in ice-cold 75% ethanol at −20 °C overnight. After centrifugation, the fixed cells were rinsed with ice-cold phosphate buffered saline (PBS), and resuspended in 0.5 mL of PBS containing 100 μg/mL RNase, 50 μg/mL propidium iodide (PI) in the dark for 5−10 min. The cell cycle distribution was analyzed by FACS Calibur flow cytometer (BD) and calculated using ModFIT LT software. (b) Apoptosis assay: 1 × 10^5 HepG2 cells were plated in 6-well plates, after incubation for 24 h with complexes 1–3 at 1.0, 2.0 and 5.0 μM, cells were collected, and Apoptosis Detection kit FITC Annexin V was used to analyze the cell apoptosis according to the manufacturer’s instructions.

[9] = test system: HepG2 cells; experiment: Comet assay for DNA damage; type: cell-based, human; design: unit not given here; settings: HepG2, 1.0 μM, 24 h
Experimental: After the observation of significant S-phase arrest caused by 1–3, the study of DNA damage assay is necessary. The single cell gel electrophoresis technique (comet assay) is a simple, sensitive, reliable, and rapid method to detect DNA damage in eukaryotic cell[39]. As shown in Table 3 and Fig. 6, 1–3 at 1.0 μM induced DNA damage (fragmentation or unwinding) appeared as fluorescent comets with remarkable increase of tails size, especially for 3.
The comet assay is a simple method for measuring DNA strand breaks in cells. The comet assay reagent kit was purchased from Trevigen, and the experiment was carried out according to the manufacturer’s instructions. After treatment with OD and 1–3 at 1.0 μM, HepG2 cells were harvested and suspended at 1 × 10^6 Hep-G2 cells/mL in PBS. The cells suspension was mixed with melted LM agarose at a ratio of 1:10 (v/v). An aliquot (75 μL) of the mixture was immediately pipetted onto the slide (Comet Slide TM). After refrigeration for 30 min, the slide was immersed in pre-chilled lysis solution and left on ice for 60 min, followed by immersing in freshly prepared alkaline solution (300 mM NaOH, 1 mM EDTA, pH > 13) for 60 min on ice in darkness. After DNA unwinding, the slide was subjected to alkaline solution for electrophoresis in a Savant ps 250 system set at 300 mA and 1 volt/cm for 30 min. After electrophoresis, the slide was rinsed with distilled H2O, fixed in 70% ethanol for 5 min and air-dried overnight. DNA was stained with SYBR Green I (Trevigen) and visualized under a fluorescence microscope (Nikon, Eclipse E600).

[10] = test system: Hep-G2; settings: read-out: Antitumor activity: IC50; cited from earlier work
[11] = test system: NCI-H460; settings: read-out: Antitumor activity: IC50; cited from earlier work
[12] = test system: SK-OV-3; design: method as in PMID 27898051; settings: read-out: Antitumor activity: IC50; cited from earlier work
[13] = test system: BEL-7404; settings: read-out: Antitumor activity: IC50; cited from earlier work
[14] = test system: A2780; design: method as in PMID 20023911; settings: read-out: Antitumor activity: IC50; cited from earlier work
[15] = test system: HT-29; design: method as in PMID 20023911; settings: read-out: Antitumor activity: IC50; cited from earlier work

Compound COc1cc2c(cc1O)C(=O)c1nccc3cc(OC(C)C)c(OC)c-2c13 [OD] has an inhibitive ratio ([1]; HepG2, 20 μmol/L, 48 h) of 33.35±0.32%, an IC50 ([1]; Homo sapiens, HepG2, 48 h, MTT) of 8.98 ± 0.76 µM and an IC50 ([2]; Homo sapiens, T-24, 48 h, MTT) of 9.12 ± 0.11 µM. The inhibitive ratio ([2]; T-24, 20 μmol/L, 48 h) was 46.91±0.17%, the inhibitive ratio ([3]; BEL-7404, 20 μmol/L, 48 h) was 36.28±0.18% and the IC50 ([3]; Homo sapiens, BEL-7404, 48 h, MTT) was 24.8 ± 1.02 µM. The IC50 ([4]; Homo sapiens, MGC-803, MGC80-3, 48 h, MTT) was 23.3 ± 0.88 µM, the inhibitive ratio ([4]; MGC80-3, 20 μmol/L, 48 h) was 42.28±0.24% and the IC50 ([5]; Homo sapiens, SK-OV-3/DDP, 48 h, MTT) was 38.5 ± 1.42 µM. The “folds higher cytotoxicity than cisplatin” value ([5]; SK-OV-3/DDP, ratio of IC50) was 2 folds, the inhibitive ratio ([5]; SKOV-3/DDP, 20 μmol/L, 48 h) was 45.57±1.94% and the inhibitive ratio ([6]; HL-7702, 20 μmol/L) was 46.55±0.67%. For the same compound, the IC50 ([6]; Homo sapiens, L02, HL-7702 normal liver cells, MTT) was 9.28 ± 0.43 µM, the inhibition at 20 µM [7] was 33 to 47% and the “effect on the population of the cell cycle” value [8] was “barely change the population of the cell cycle”. The Comet length [9] was 49.45 ± 6.19, the Olive tail moment [9] was 0.13 ± 0.29 and the Tail length [9] was 1.96 ± 1.78. For the same compound, the Tail moment [9] was 0.12 ± 0.21.
In the case of Nc1cccc2c1C(=O)c1cccc3ccnc-2c13.[Cl][Ni][Cl] [Complex C00005], the IC50 [10] is given as 18.2 µM, the IC50 [11] is given as 15.6 µM and the IC50 [12] is given as 15 µM.
For O=C1c2ccccc2-c2c3c(cc4ccnc1c24)OCO3.O=C1c2ccccc2-c2c3c(cc4ccnc1c24)OCO3.[Cl][Zn][Cl].[Cl][Zn][Cl] [Complex C00008], the IC50 [13] is listed as 8.4 µM, the IC50 [14] is listed as 6.7 µM and the IC50 [15] is listed as 5.8 µM.
For Nc1c(Cl)ccc2c1-c1nccc3cccc(c13)C2=O.[Cl][Ni][Cl] [Complex C00006], the IC50 [10] is listed as 28.8 µM, the IC50 [11] is listed as 35.2 µM and the IC50 [12] is listed as 29.1 µM.
